{"source": "patent US12134769B2", "about": "“MicroRNA-198 as a tumor suppressor in ovarian cancer” (Baylor College of Medicine, priority 2011, dated 2024)", "key": {"AsPC1 cells [1]": {"tested_on": "AsPC1 cells", "assay": "Monolayer wound healing assay", "type": "cell-based, human", "conditions": "miR-198 overexpressed, all serum conditions tested", "text": "(§1) For wound healing assay, wounds were created in confluent monolayer of cells with a sterile pipette tip in either 0%, 0.2%, 2%, or 5% FBS media, and wound healing was observed within the scrape line at different time points; representative fields for each cell line were photographed (Li et al., 2008, Bharadwaj)."}, "MIA-MSLN cells [2]": {"tested_on": "MIA-MSLN cells", "assay": "Monolayer wound healing assay", "type": "cell-based, human", "conditions": "miR-198 overexpressed, all serum conditions tested", "text": "as §1"}, "HPDE cells": {"tested_on": "HPDE cells", "assay": "Migration assay", "type": "cell-based", "conditions": "72 h", "protocol": "Cell migration was determined with a modified Boyden chamber assay as described previously (Li et al., 2008). For invasion assays, Matrigel basement membrane matrix (BD Biosciences) was used by adding 100 ul of 1 mg/ml Matrigel to the migration chamber inserts prior to plating of the cells (Li et al., 2008, Bharadwaj)."}, "AsPC1 cells [3]": {"tested_on": "AsPC1 cells", "assay": "Stable miR-198 overexpression, expression of network factors", "type": "cell-based, human", "protocol": "(§2) Western blots were performed as previously described (Li et al., 2008). Membranes were probed with: anti-MSLN monoclonal antibody (1:1000) (Abcam); PBX-1 polyclonal antibody (1:1000) and Caspase 3 antibody (1:1000) (Cell Signaling); OCT-2 polyclonal antibody (1:400), and VCP polyclonal antibody (1:200) (Santa Cruz Biotechnology); or anti-β-actin, Tubulin, LaminA or GAPDH antibodies (1:10,000) (Sigma Aldrich). Secondary incubation was performed with horseradish peroxidase-linked secondary antibody (1:2,000) (anti-mouse, anti-goat or anti-rabbit) (Cell Signaling).\n(§3) MSLN-overexpressing stable cells (or empty vector controls) were selected in MIA PaCa-2 cells or HPDE cells (MIA-MSLN, HPDE-MSLN) or vector (MIA-V, HPDE-V) using retrovirus vectors expressing puromycin resistance (Origene) with 0.5 μg/mL of puromycin added into the medium as previously described (Zhang et al.). Stable cells overexpressing miR-198 or vector control were generated in AsPC-1 (AsPC-1-miR-198, AsPC-1-miR-Ctrl), MIA-MSLN (MIA-MSLN-miR-198, MIA-MSLN-miR-Ctrl), MIA-V (MIA-V-miR-198, MIA-V-miR-Ctrl), and HPDE cells (HPDE-miR-198, HPDE-miR-Ctrl) using the Lenti-miR miRNA Precursor Clone Collection (SBI). The miRZip Lentivector collection from SBI was used to stably knock down miR-198 in MIA-PaCa2 (MIA-V-Zip-198, MIA-V-Zip-Ctrl) and HPDE (HPDE-Zip-198, HPDE-Zip-Ctrl) cells.\n(§4) Differential expression of 95 miRNAs chosen for their potential roles in cancer, cell development, and apoptosis was analyzed by RT-PCR using the QuantiMir System from SBI System Biosciences in both MIA-V and MIA-MSLN cells. The array plate also included the U6 transcript as a normalization signal. cDNAs from different cell lines and tissue samples were mixed with SYBR® Green Mastermix (Bio-Rad Laboratories) plus the universal reverse primer. Specific primers (1 μl) were added to each well of the qPCR plate. Expression levels of each mature miRNA were evaluated using comparative threshold cycle (Ct) method as normalized to that of U6 (2—ΔCt). The expression level of miR-198 was measured in all subsequent experiments using the same method. Real-time RT PCR was performed as previously described for MSLN, ZEB1, PBX-1, and VCP (Li et al., 2008)."}, "MIA-MSLN cells [4]": {"tested_on": "MIA-MSLN cells", "assay": "Stable miR-198 overexpression, expression of network factors", "type": "cell-based, human", "conditions": "miR-198 overexpression in MIA-MSLN cells", "protocol": "as §2, §3, §4"}, "AsPC1 cells [5]": {"tested_on": "AsPC1 cells", "assay": "Cell proliferation assay (MTT)", "type": "cell-based, human", "conditions": "AsPC1-miR-198 cells", "protocol": "(§5) Cells were seeded in 96-well plates (2×10^3 cells per well) and serum starved for 24 h prior to differential FBS additions. 3-(4,5-Dimethylthiazol-2-yl)-2,5-diphenyltetrazolium bromide (MTT) was used to measure cell proliferation as previously described (Bharadwaj et al., 2011b).\n(§6) Cell growth was assessed using MTT at 2, 3, 4, 5 and 6 days after releasing from starvation (not all data shown). Briefly, twenty microliters of MTT reagent mixed with 100 μL of growth medium was added to each well and incubated at 37° C. for 2 h. Cells were then lysed overnight using 100 μl of lysis buffer consisting of 20% SDS in 1:1 dimethyl formamide; H2O solution. Absorbance was recorded at 520 nm with an EL-800 universal microplate reader (Bio-Tek Instruments). Relative proliferation was calculated by dividing the reading by a Day 0 reading taken prior to serum starvation."}, "MIA-MSLN cells [6]": {"tested_on": "MIA-MSLN cells", "assay": "Cell proliferation assay (MTT)", "type": "cell-based, human", "conditions": "MIA-MSLN-miR-198 cells, after 5 days", "protocol": "as §5, §6"}, "MIA-MSLN cells [7]": {"tested_on": "MIA-MSLN cells", "assay": "Anchorage independent growth assay in soft agar", "type": "cell-based, human", "conditions": "MIA-MSLN-miR-198 vs MIA-MSLN, 15 days, ImageJ", "protocol": "A soft agar assay for colony formation was performed by coating 35 mm dishes with a combination of 0.5% base agar and 0.7% top agar. Base agar preparation: 1% LMP Agarose (DNA grade) (Baylor College of Medicine) was melted in 1× incomplete DMEM, microwaved, and cooled to 40° C. in a water bath. Equal volumes of 20% FBS DMEM pre-warmed to 40° C. in water bath were mixed to give 0.5% Agar+10% DMEM, of which 1.5 ml/35 m Petri dish was added and allowed to set at room temperature.\nTop agar preparation: 0.7% LMP Agarose (DNA grade) in 1×DMEM was prepared in the same manner as above. Cells were trypsinized and diluted to 0.1×10^6 cells/ml, in the 20% FBS DMEM; 5,000 cells/dish were plated in duplicate. The plates were then incubated at 37° C. in a humidified incubator for 15 days. Following incubation, the plates were stained with 0.5 ml of 1% MTT for 2 h, and colonies were photographed using a dissecting microscope. Images were analyzed using IMAGEJ software."}, "COS-7 cells": {"tested_on": "COS-7 cells", "assay": "Co-transfection with MSLN ORF construct, western blot", "type": "cell-based", "conditions": "COS-7 cells co-transfected with WT MSLN plasmid and miR-198 precursors", "text": "A MSLN ORF clone was purchased from Origene (RC202532). Site-directed mutagenesis was used to generate constructs containing silent mutations in each of the three predicted miR-198 binding sites within the CDS of the MSLN gene (FIG. 13). MiR-198 precursors or a scrambled miRNA control were co-transfected into COS-7 cells along with either the WT MSLN ORF construct or each of the single, double, or triple mutants. Cell lysates were collected for western blot analysis. RNA and miRNA were collected for real-time RT-PCR analysis."}}}
{"substance": "miR-198: microRNA-198, SEQ ID NO: 1 gguccagaggggagauagg; used as transfected precursors (Ambion) or Lenti-miR stable overexpression (GGUCCAGAGGGGAGAUAGG; listed as RNA, chemistry not given here; listed as Homo sapiens)", "values": [{"measurement": "wound closure rate", "setting": "AsPC1 cells [1]", "value": "reduced wound closure rate"}, {"measurement": "wound closure rate", "setting": "MIA-MSLN cells [2]", "value": "reduced wound closure rate"}, {"measurement": "migration", "setting": "HPDE cells", "value": "did not seem to have an effect"}, {"measurement": "VCP mRNA levels downregulated", "setting": "AsPC1 cells [3]; ASPC1 cells following miR-198 overexpression, FIG. 10J", "value": "~5", "unit": "fold"}, {"measurement": "VCP expression downregulated", "setting": "AsPC1 cells [3]; AsPC1 cells following miR-198 overexpression, FIG. 3E", "value": "~50", "unit": "fold"}, {"measurement": "PBX-1 mRNA and protein expression", "setting": "AsPC1 cells [3]; miR-198 overexpression in AsPC1 cells", "value": "almost undetectable"}, {"measurement": "MSLN expression at the protein level", "setting": "MIA-MSLN cells [4]", "value": "almost complete reduction of MSLN expression"}, {"measurement": "MSLN mRNA expression levels", "setting": "MIA-MSLN cells [4]", "value": "partial decrease"}, {"measurement": "PBX-1 mRNA and protein expression", "setting": "MIA-MSLN cells [4]", "value": "almost undetectable"}, {"measurement": "VCP mRNA levels", "setting": "MIA-MSLN cells [4]; FIG. 10I", "value": "reduces VCP down to MIA-V cell levels"}, {"measurement": "proliferation rates vs AsPC1-miR-Ctrl cells", "setting": "AsPC1 cells [5]", "value": "significantly lower proliferation rates"}, {"measurement": "lower proliferation rates than MIA-MSLN and MIA-MSLN-miR-Ctrl cells", "setting": "MIA-MSLN cells [6]", "value": "approximately 3 fold"}, {"measurement": "reduction in mean threshold intensity of soft agar colonies", "setting": "MIA-MSLN cells [7]", "value": "~20", "unit": "fold"}, {"measurement": "expression of WT MSLN protein", "setting": "COS-7 cells", "value": "abolished expression of the WT MSLN protein"}]}
